Test results as given in PMC11268479, “Delineation of the complete reaction cycle of a natural Diels–Alderase” (Chemical Science, 2024).
Where “and” joins values, the source holds several entries; their conditions need not be identical. Equal entries are not always repeated. Where two headings read alike, the source gives them in different places.

Legend:
AbyU [1] = molecular target: T1, AbyU (Micromonospora maris, UniProt Z9P124SIT8, F95Y, form not given); assay: Multiple turnover (burst phase) stopped-flow kinetics of the AbyU catalysed conversion of 5 to 6; assay type: biochemical, Micromonospora maris AB-18-032
Protocol: To formally identify the rate-limiting step in the AbyU catalysed cycloaddition reaction, a multiple turnover kinetics experiment was undertaken. The stopped-flow transients (Fig. 5a) reveal two distinguishable burst phases when fitted to eqn (3), a derivative of eqn (1), which incorporates a linear phase to account for multiple turnovers in the steady-state.3 [drawing 3]
When the data for kburst1 are fitted to eqn (4), kon and koff can be determined to be 0.88 ± 0.03 μM^−1 s^−1 and 3.4 ± 0.71 s^−1, for substrate binding and dissociation respectively, in this conformation.4 kburst1 = kburst1on[S] + kburst1off
The relationship between the slower burst phase, kburst2 and substrate concentration, in contrast, fits well to, and is highly representative of, a two-step binding interaction (eqn (5) (ref. [32])).5 kburst2 = 1/2(p − q)where:5.1 p = kburst2on1 × [S] + kburst2off1 + kburst2on2 + kburst2off25.2 [drawing 4] 5.3 r = kburst2on1 × [S] × kburst2on2 + kburst2off1 × kburst2off2 + kburst2on1 × [S] × kburst2off2
(§1) Stopped-Flow (SF) experiments were performed using a Hi-Tech Scientific KinetAsyst Stopped-Flow System spectrophotometer (TgK Scientific, Bradford on Avon, UK). Both syringe 1 and 2 were washed with ddH2O and SF buffer (18 mM Tris–HCl, 135 mM NaCl, 10% acetonitrile, pH 7.5). 10% acetonitrile was maintained in both syringes at all times to ensure solubility of the substrate. The stop-flow was zeroed and references were taken using SF buffer in each syringe for burst phase kinetics. Purified recombinant AbyU in SEC buffer (20 mM Tris–HCl, 150 mM NaCl, pH 7.5), was diluted to a final concentration of 800 μM AbyU in SF buffer. This solution of AbyU was placed in syringe 1 to obtain references for the single turnover experiments. For the multiple turnover experiments, AbyU was added to syringe 1 at a concentration of 2 μM (diluted in SF buffer). Likewise, substrate 5 was diluted in SF buffer to double the reaction concentration and placed in syringe 2. 50 μL from each syringe was injected into the mixing chamber and measurement immediately commenced. Reactions were observed using a logarithmic timebase over either 1000 s or 10 s. For the 1000 s experiments, the timeframe was split into 15 cycles, each with 200 points, each of which was distributed in a logarithmic manner. This ensured a high number of readings in the first seconds of the experiment. […] This was compounded by the weak affinity of substrate 5 for the plastic components in the SF system, rendering it impossible to precisely replicate the concentration of 5 in the reaction chamber over multiple syringes. To measure the uncatalysed rate of substrate cyclisation, the stop flow was zeroed and references were taken using SF buffer in both syringes. Varying concentrations of substrate 5 were added to syringe 2 and measurements were taken using a linear time base over 10 seconds. All reactions were performed at 20 °C.
Results were fitted using Graphpad Prism. Data obtained before 2 ms was discarded, reflecting the dead-time of the instrument. Data were fit to equations as outlined in the text. The 10 s single turnover kinetic data were fitted to two exponentials with a sloping baseline (eqn (3)). […] To circumvent this, the data between 3 s and 10 s were separately fitted to a straight line to determine the initial rate of k3. In order to fully analyse the change in the reaction rate with respect to the concentration of 5, 3–6 transients at each substrate concentration were taken and the rate and amplitude parameters derived from the fit appropriate for each transient (Fig. S4 and S9 ^†). The background rate of reaction (Fig. S11 ^†) was removed from the steady-state reaction and from the linear portion of k3. The other exponential phases occur too rapidly for the background rate of reaction to have an appreciable influence on the data. […]

[2] = molecular target: AbyU (Micromonospora maris); assay: Single turnover stopped-flow kinetics of the AbyU catalysed conversion of 5 to 6 (excess enzyme, absorbance 325 nm); assay type: biochemical, Micromonospora maris AB-18-032; conditions: single turnover, 10 s, 20 °C, pH 7.5, 10% acetonitrile, eqn (2); read-out: Ki from substrate inhibition fit of kobs2 vs [5] (binding affinity for slower reacting species)
Text: (§2) To further investigate the AbyU catalysed reaction stopped-flow kinetic studies were undertaken employing substrate 5. […] This feature is lost upon cyclisation and thus constitutes a viable spectrophotometric probe to monitor the AbyU catalysed conversion of substrate 5 to product 6 (Fig. 1b). […] We assessed the quality of the fit from the plotted residuals.
(§3) As the concentration of 5 increases, a concomitant decrease in the rate constants kobs1 and kobs2 is observed. […] These different conformational populations cannot be individually resolved using ensemble kinetic measurements unless their rate constants differ by at least an order of magnitude, therefore, the observed rate constant reflects average behaviour. The relative equilibrium saturation constants observed for two different binding conformations can be obtained by examining the dependence of kobs2 on (Fig. 3b). From Fig. 3b, the data present as apparent substrate inhibition. In this case, we can envisage that the ‘slow’ reacting species effectively acts as a weak inhibitor relative to the ‘fast’ reacting species, thus presenting as apparent substrate inhibition.
(§4) It should be noted that the species reflected by the third exponential phase has a larger equilibrium constant than the faster reacting species, with a rate of reaction approximately 20-fold slower than the steady-state rate of the enzyme (Fig. S6 ^†). As it represents an insignificant component of the steady-state reaction, we have not analysed this phase any further.
as §1
(§5) Results were fitted using Graphpad Prism. […]

AbyU [3] = molecular target: T1, AbyU; assay: as above; assay type: biochemical, Micromonospora maris AB-18-032
Text: as §2, §3, §4, §1, §5

[4] = Uncatalysed (spontaneous) cyclisation of substrate 5, stopped-flow; assay type: physicochemical; conditions: SF buffer, no enzyme, 10 s, 20 °C, pH 7.5, 10% acetonitrile
Protocol: Stopped-Flow (SF) experiments were performed using a Hi-Tech Scientific KinetAsyst Stopped-Flow System spectrophotometer (TgK Scientific, Bradford on Avon, UK). Both syringe 1 and 2 were washed with ddH2O and SF buffer (18 mM Tris–HCl, 135 mM NaCl, 10% acetonitrile, pH 7.5). 10% acetonitrile was maintained in both syringes at all times to ensure solubility of the substrate. The stop-flow was zeroed and references were taken using SF buffer in each syringe for burst phase kinetics. Purified recombinant AbyU in SEC buffer (20 mM Tris–HCl, 150 mM NaCl, pH 7.5), was diluted to a final concentration of 800 μM AbyU in SF buffer. […] This ensured a high number of readings in the first seconds of the experiment. […]
Results were fitted using Graphpad Prism. […] The amplitude of the change in absorbance was converted to concentration using the following measured absorbance coefficient for substrate 5: ε325 nm = 13 200 M^−1 cm^−1 and the following measured absorbance coefficient for product 6: ε325 nm = 1085 M^−1 cm^−1. […] Initial concentrations of substrate 5 were calculated from the absorbance at t = 0, to account for uncatalysed substrate turnover, and the tendency of the substrate to have a weak affinity with the plastic present in the stop-flow apparatus. […] The slope of the line was determined for each substrate concentration and averaged over 3–5 repeats.

AbyU [5] = molecular target: T1, AbyU; assay: Steady-state kinetics of the AbyU catalysed conversion of 5 to 6 (Michaelis–Menten fit); assay type: biochemical, Micromonospora maris AB-18-032
Protocol: Fig. 5 Burst phase characterisation of the AbyU catalysed conversion of 5 to 6. (a) Example of the transient observed (blue) in the reaction of 54 μM 5 with 1 μM AbyU, shown on a logarithmic scale with a linear scale shown inset for comparison. The transient is fitted to eqn (3) (black line, see Fig. S9 ^† for fitting analysis). (b) The rate of turnover in each burst phase as a function of the concentration of 5. Data for kburst1 is fitted to a one-step binding model (eqn (4)) and kburst2 is fitted to a two-step binding model (eqn (5)). (c) Steady-state kinetics fitted to the Michaelis–Menten equation (eqn (S1) ^†). […] This is perhaps unsurprising, as the conformationally constricted product must by necessity dissociate from the ‘closed’ active site. Steady-state kinetics reveal the impact that product release has upon the overall rate. […] Stopped-Flow (SF) experiments were performed using a Hi-Tech Scientific KinetAsyst Stopped-Flow System spectrophotometer (TgK Scientific, Bradford on Avon, UK). […] This ensured a high number of readings in the first seconds of the experiment. […] The amplitude of the change in absorbance was converted to concentration using the following measured absorbance coefficient for substrate 5: ε325 nm = 13 200 M^−1 cm^−1 and the following measured absorbance coefficient for product 6: ε325 nm = 1085 M^−1 cm^−1. […]

[6] = burst phase 1, eqn (4), 20 °C, pH 7.5
[7] = burst phase 2, two-step binding, eqn (5), 20 °C, pH 7.5

T1 sequence (Z9P124SIT8 1-160 F95Y): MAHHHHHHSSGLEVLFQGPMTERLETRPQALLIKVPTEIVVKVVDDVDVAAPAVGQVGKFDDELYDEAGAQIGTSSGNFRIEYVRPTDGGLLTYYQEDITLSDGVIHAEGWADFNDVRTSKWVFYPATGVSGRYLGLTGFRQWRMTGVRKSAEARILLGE
Sequence of AbyU (Micromonospora maris) (Z9P124SIT8 1-160 F95Y): as above

k5 (cyclisation once substrate is bound) (AbyU [1]; 20 °C, pH 7.5): N.D. (very quick)
Kd (AbyU [1]; apparent binding constant, two-step route, read-out: Kapp = K2 × K4): 1.3 µM
Kd (AbyU [1]; binding constant, ES2 conformation, read-out: K2 = k−2/k2): 1.97 ± 4.24 µM
Kd (AbyU [1]; binding constant, ES conformation, read-out: K1 = k−1/k1): 3.86 ± 0.94 µM
k1 (kon, kburst1, substrate binding, one-step) (AbyU [1]; [6]): 880000 ± 30000 M⁻¹ s⁻¹
k−1 (koff, kburst1, substrate dissociation) (AbyU [1]; [6]): 3.4 ± 0.71 s⁻¹ and 3.41 ± 0.71 s⁻¹
k2 (on rate, kburst2, sub-optimal conformation) (AbyU [1]; [7]): 360000 ± 460000 M⁻¹ s⁻¹
k4 (rearrangement within active site to most productive conformation) (AbyU [1]; [7]): 1.37 ± 2.38 s⁻¹
k−2 (off rate, kburst2, sub-optimal conformation) (AbyU [1]; [7]): 0.71 ± 0.62 s⁻¹
k−4 (AbyU [1]; burst phase 2, two-step binding, reverse rearrangement, 20 °C, pH 7.5): 0.90 ± 2.29 s⁻¹
K4 (k−4/k4) (AbyU [1]; equilibrium constant of rearrangement): 0.66 ± 2.81
Ki [2]: 54.9 ± 14.5 µM
k3 (AbyU [3]; binding in ES3 conformation (third phase), 20 °C, pH 7.5): ≈5.7 × 10^−4 ± 3.8 × 10^−5 μM^−1 s^−1
k−3 (AbyU [3]; dissociation from ES3 conformation (third phase), 20 °C, pH 7.5): ≈6.9 × 10^−3 ± 1.9 × 10^−3 s^−1
rate of third exponential phase slower than the steady-state rate of the enzyme (AbyU [3]; ratio): approximately 20 fold
Km (AbyU [3]; single turnover, 10 s, 20 °C, pH 7.5, 10% acetonitrile, eqn (2), read-out: Km from substrate inhibition fit of kobs2 vs [5] (approximation of binding affinity for faster-reacting conformation(s))): 13.2 ± 3.2 µM
kspont (spontaneous cyclisation of 5) [4]: 1250 ± 17 M⁻¹ s⁻¹
kcat slower than the initial rate of kburst1 (AbyU [5]; ratio): around 230 times
kcat (AbyU [5]; steady-state, 20 °C, pH 7.5, 10% acetonitrile): 0.116 ± 0.005 s⁻¹
SMILES: C=C1OC(=O)C(C(=O)[C@H](C)C[C@H](C)C(=O)/C=C/C=C/C=C/C)=C1OC [compound 5]
